Measurements from PMC2635096 (Journal of biological inorganic chemistry : JBIC : a …, 2008).
pKd: −log10 of the molar value. Read-outs that look alike come from different tables or passages of the source.

How the values were obtained:
[1] = target: NP1 (wild-type nitrophorin 1) (Rhodnius prolixus, UniProt Q26239); test: UV/Vis ligand titration, equilibrium binding constants
[2] = target: H60C_NP1 (His-60 to Cys-60 mutant of nitrophorin 1) (Rhodnius prolixus, UniProt Q26239, H82C); test: biochemical; format: binding
H60C_NP1 (His-60 to Cys-60 mutant of nitrophorin 1) (Rhodnius prolixus, UniProt Q26239, H82C), sequence (Q26239 24-207 H82C): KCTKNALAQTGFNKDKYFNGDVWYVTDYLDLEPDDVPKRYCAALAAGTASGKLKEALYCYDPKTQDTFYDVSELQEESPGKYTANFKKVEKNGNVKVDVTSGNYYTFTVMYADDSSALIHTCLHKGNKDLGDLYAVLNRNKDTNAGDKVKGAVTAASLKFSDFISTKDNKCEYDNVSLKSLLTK

[3] = test system: H60C_NP1 (His-60 to Cys-60 mutant of nitrophorin 1); test: biochemical; format: binding, Rhodnius prolixus; details: H60C_NP1 vs NP1
[4] = read-out: Dissociation constant (Kd) of ligand complex of NP1, 25°C, PBS buffer (50mM Na-phosphate, 100 mM NaCl, pH 7.4), UV/Vis titration

NP1 (wild-type nitrophorin 1), sequence (Q26239 24-207): as the sequence (Q26239 24-207 H82C) above, with C59H counted along it

Compound: Cc1c[nH]cn1 [4-Methylimidazole]
- pKd [1]: 6.74
- pKd [2]: 3.25
- Increase in dissociation constant for H60C_NP1 relative to NP1 [3]: more than three orders of magnitude

Compound: c1c[nH]cn1 [Imidazole]
- pKd [1, 4]: 6.59
- pKd ([1]; read-out: Dissociation constant (Kd) of ligand complex of NP1, 25°C, PBS buffer (50mM Na-phosphate, 100 mM NaCl, pH 7.4), UV/Vis titration, listed as imidazole): 6.60

Compound: CCCCn1ccnc1 [N-(n-Butyl)imidazole]
- pKd [1, 4]: 7.28
